According to article PMC7827406, “Structure–Activity Relationship (SAR) Study of Spautin-1 to Entail the Discovery of Novel NEK4 Inhibitors” (International Journal of Molecular Sciences, 2021):
Like-named read-outs stand apart in the source and are kept apart here.

Experiments:
Assay in all cases: biochemical
Set-up in all cases: Eurofins KinaseProfiler full panel at Km ATP, residual kinase activity (%) relative to DMSO
[1] = biological target: SRPK1(h) (Homo sapiens, UniProt Q96SB4)
In short: (§1)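 Radiometric kinase activity assays were run with ATP at Km and compounds at 10 µM, and remaining activity (%) was reported. A separate competitive binding screen measured DNA-tagged kinase displaced from immobilized active-site ligands by qPCR, giving percent kinase still bound at 10 µM compound in DMSO.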

[2] = biological target: T1, GCK(h) (Homo sapiens, UniProt Q12851)
T1 construct: gene MAP4K2
T1 sequence (Q12851 1-820): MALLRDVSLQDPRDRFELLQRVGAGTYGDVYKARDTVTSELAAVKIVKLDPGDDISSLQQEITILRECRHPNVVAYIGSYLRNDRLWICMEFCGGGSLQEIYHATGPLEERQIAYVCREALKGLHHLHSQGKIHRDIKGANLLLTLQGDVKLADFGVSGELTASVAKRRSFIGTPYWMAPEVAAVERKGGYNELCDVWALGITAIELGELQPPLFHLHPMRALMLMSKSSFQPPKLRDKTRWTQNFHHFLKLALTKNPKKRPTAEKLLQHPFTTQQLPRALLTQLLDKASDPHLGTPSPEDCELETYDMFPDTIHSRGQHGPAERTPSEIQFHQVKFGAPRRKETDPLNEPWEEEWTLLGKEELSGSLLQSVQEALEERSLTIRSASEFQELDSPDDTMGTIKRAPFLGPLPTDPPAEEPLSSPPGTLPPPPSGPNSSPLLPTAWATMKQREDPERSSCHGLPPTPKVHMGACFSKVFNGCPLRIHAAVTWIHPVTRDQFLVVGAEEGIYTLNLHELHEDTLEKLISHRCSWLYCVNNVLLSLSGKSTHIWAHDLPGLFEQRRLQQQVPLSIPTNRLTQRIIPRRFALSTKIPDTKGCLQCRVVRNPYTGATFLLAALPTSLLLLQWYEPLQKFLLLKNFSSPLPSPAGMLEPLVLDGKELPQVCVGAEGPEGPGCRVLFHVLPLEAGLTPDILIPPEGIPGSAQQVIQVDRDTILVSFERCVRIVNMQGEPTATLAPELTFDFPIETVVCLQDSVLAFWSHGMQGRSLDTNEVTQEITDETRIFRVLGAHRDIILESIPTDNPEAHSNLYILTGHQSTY
In short: as §1

[3] = biological target: EGFR(T790M)(h) (Homo sapiens, UniProt P00533, T790M)
In short: as §1

[4] = biological target: T2, PEK(h) (Homo sapiens, UniProt Q9NZJ5)
T2 construct: gene EIF2AK3
T2 sequence (Q9NZJ5 1-1116): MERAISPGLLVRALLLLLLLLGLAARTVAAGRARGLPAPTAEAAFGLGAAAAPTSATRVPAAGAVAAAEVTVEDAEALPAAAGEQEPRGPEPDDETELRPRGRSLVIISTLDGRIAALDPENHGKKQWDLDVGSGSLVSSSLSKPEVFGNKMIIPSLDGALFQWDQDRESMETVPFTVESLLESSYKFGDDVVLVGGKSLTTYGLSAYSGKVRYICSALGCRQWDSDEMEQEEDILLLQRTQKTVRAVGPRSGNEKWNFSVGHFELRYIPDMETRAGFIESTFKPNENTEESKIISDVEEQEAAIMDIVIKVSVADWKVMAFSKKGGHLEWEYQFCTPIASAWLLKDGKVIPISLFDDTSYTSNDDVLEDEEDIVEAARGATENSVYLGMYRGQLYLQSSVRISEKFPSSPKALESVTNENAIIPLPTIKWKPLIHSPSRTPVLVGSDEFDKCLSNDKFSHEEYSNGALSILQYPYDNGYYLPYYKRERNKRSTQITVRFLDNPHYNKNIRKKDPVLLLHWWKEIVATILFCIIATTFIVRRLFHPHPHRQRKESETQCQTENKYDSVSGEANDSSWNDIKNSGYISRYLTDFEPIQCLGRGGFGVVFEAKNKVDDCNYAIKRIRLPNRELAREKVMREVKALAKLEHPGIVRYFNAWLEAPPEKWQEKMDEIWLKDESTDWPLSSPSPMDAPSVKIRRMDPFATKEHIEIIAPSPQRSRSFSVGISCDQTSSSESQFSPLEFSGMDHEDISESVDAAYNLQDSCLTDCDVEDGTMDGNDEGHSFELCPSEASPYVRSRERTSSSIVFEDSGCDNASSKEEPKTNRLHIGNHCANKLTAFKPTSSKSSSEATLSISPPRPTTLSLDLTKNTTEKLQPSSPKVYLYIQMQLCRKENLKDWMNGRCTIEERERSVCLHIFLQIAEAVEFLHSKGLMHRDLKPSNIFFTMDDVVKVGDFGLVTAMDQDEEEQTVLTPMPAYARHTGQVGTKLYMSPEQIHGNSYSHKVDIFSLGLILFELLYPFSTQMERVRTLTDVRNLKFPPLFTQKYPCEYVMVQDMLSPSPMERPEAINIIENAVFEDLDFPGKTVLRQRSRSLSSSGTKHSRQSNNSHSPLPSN
In short: as §1

[5] = biological target: T3, Snk(h) (Homo sapiens, UniProt Q9NYY3)
T3 construct: gene PLK2
In short: as §1

[6] = biological target: STK25(h) (Homo sapiens, UniProt O00506)
In short: as §1

[7] = biological target: HIPK2(h) (Homo sapiens, UniProt Q9H2X6)
In short: as §1

[8] = read-out: Residual activity (%) 5at
[9] = read-out: Residual activity (%) 5as
[10] = read-out: Residual activity (%) 5ay
[11] = read-out: Residual activity (%) Spautin-1 5aa

Chain of EGFR(T790M)(h) (P00533 whole entry T790M): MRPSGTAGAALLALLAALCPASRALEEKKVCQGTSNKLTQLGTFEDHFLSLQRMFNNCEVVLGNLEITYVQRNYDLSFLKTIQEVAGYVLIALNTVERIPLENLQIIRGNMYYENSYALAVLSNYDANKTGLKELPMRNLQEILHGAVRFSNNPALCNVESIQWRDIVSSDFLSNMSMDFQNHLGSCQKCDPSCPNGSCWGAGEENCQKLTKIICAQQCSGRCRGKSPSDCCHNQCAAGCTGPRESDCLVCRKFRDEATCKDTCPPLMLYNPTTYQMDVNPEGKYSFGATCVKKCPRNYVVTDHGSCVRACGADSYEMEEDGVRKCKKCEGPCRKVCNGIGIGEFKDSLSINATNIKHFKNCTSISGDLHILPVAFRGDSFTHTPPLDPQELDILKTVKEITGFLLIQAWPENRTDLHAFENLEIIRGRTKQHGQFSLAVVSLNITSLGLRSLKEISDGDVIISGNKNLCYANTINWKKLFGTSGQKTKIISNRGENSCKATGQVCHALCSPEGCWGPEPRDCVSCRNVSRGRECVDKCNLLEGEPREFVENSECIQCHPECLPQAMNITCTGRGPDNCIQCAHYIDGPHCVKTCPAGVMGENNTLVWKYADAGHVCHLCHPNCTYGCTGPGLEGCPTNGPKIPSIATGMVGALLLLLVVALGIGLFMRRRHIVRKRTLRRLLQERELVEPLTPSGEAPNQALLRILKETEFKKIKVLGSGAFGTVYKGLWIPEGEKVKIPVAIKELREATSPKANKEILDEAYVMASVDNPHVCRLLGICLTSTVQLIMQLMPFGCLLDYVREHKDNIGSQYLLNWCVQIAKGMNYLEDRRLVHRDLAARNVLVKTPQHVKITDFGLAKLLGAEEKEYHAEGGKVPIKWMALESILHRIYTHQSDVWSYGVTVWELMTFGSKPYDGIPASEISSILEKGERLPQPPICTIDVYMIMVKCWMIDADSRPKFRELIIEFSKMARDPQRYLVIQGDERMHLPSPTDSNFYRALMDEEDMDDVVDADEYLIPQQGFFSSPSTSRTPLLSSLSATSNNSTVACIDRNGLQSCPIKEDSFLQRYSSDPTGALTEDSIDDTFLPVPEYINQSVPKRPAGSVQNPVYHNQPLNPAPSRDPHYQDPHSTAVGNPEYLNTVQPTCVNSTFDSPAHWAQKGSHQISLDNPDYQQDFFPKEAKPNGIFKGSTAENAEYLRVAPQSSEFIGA
Chain of SRPK1(h) (Q96SB4 whole entry): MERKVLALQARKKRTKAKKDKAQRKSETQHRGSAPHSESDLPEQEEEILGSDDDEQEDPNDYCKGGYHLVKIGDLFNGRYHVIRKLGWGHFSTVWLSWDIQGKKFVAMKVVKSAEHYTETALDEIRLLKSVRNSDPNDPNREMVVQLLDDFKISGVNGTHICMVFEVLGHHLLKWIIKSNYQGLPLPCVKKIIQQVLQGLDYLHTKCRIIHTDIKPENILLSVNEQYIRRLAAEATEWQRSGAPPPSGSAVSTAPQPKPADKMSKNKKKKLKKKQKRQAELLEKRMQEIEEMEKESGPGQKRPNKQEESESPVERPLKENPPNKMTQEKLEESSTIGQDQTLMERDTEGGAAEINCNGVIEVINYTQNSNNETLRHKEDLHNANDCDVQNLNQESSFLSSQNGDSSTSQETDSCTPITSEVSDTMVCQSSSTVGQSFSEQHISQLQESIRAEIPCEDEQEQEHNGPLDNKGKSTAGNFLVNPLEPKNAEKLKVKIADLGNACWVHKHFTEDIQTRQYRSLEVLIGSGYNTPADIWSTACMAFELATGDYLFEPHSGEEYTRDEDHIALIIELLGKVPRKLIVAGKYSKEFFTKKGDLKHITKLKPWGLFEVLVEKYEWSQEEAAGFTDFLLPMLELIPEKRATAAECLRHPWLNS
Chain of STK25(h) (O00506 whole entry): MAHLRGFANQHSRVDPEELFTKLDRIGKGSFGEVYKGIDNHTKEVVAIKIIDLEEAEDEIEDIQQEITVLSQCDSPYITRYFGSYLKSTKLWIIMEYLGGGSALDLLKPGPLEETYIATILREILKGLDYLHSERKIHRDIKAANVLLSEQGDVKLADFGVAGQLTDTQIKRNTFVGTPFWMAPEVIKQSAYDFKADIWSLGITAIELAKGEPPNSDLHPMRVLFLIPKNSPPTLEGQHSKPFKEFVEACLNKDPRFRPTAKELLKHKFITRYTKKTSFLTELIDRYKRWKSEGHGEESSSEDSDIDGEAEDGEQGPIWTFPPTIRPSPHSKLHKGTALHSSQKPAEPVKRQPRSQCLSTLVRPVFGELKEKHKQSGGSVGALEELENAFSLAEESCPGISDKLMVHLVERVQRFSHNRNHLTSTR
Chain of HIPK2(h) (Q9H2X6 whole entry): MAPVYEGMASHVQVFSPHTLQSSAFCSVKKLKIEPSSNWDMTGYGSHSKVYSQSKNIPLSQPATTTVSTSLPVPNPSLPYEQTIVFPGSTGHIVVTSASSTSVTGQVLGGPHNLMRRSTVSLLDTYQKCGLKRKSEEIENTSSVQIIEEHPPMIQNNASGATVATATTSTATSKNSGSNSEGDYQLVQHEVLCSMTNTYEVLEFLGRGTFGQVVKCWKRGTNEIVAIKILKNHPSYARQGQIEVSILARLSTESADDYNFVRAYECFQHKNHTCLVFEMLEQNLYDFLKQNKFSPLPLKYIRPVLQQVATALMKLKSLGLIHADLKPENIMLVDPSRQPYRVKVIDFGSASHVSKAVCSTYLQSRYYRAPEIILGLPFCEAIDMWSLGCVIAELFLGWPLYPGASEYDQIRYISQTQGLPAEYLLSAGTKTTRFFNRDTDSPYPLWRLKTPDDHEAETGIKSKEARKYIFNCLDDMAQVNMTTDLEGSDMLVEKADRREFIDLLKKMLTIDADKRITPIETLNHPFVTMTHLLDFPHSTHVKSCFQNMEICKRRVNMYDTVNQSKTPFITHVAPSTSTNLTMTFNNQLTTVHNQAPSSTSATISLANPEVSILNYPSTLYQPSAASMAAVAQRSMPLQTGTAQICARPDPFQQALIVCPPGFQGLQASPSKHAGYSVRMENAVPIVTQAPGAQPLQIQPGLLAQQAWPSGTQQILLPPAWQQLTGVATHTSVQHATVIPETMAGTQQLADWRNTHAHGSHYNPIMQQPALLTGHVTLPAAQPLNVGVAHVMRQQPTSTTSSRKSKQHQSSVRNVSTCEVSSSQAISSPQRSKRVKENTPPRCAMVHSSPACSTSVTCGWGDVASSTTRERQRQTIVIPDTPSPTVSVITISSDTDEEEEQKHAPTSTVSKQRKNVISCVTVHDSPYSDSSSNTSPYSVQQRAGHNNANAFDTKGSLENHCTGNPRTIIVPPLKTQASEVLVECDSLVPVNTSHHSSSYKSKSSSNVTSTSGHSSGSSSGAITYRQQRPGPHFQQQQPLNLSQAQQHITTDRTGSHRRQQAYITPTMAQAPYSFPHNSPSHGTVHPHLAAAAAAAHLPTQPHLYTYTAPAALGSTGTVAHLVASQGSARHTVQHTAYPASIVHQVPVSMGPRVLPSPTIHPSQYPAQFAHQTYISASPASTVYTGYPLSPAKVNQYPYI
T3 sequence (Q9NYY3 whole entry): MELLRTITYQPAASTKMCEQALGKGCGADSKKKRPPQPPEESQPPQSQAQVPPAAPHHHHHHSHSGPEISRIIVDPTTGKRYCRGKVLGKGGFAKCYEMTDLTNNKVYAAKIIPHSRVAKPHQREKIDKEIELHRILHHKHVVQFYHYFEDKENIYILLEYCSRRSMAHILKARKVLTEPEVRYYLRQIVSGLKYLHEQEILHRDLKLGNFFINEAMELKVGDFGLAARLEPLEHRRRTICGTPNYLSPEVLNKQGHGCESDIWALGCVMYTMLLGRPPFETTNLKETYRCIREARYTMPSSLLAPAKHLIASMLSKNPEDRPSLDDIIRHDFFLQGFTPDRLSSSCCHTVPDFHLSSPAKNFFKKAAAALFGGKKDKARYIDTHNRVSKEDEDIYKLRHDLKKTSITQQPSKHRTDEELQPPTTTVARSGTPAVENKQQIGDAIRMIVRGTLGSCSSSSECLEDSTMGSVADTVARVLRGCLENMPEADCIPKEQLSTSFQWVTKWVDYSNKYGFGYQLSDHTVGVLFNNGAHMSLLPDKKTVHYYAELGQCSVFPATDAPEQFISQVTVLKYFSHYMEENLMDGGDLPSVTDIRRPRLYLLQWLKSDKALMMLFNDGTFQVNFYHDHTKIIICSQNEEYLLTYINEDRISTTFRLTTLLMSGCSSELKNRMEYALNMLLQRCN

SMILES: Fc1ccc2ncnc(NCCc3ccc(Cl)cc3)c2c1 [5at, N-[2-(4-Chlorophenyl)Ethyl]-6-Fluoro-4-Quinazolinamine]
- remaining activity at 10 µM [1, 8]: 108%
- remaining activity at 10 µM [2, 8]: 87%
- remaining activity at 10 µM [3, 8]: 74%
- remaining activity at 10 µM [4, 8]: 110%
- remaining activity at 10 µM [5, 8]: 100%
- remaining activity at 10 µM [6, 8]: 111%
- remaining activity at 10 µM [7, 8]: 94%

SMILES: Fc1ccc(CCNc2ncnc3ccc(F)cc23)cc1 [5as, 6-Fluoro-N-[2-(4-Fluorophenyl)Ethyl]-4-Quinazolinamine]
- remaining activity at 10 µM [1, 9]: 112%
- remaining activity at 10 µM [2, 9]: 88%
- remaining activity at 10 µM [3, 9]: 87%
- remaining activity at 10 µM [4, 9]: 112%
- remaining activity at 10 µM [5, 9]: 89%
- remaining activity at 10 µM [6, 9]: 112%
- remaining activity at 10 µM [7, 9]: 96%

SMILES: COc1ccc2ncnc(Nc3cccc(F)c3)c2c1 [5ay, N-(3-Fluorophenyl)-6-Methoxy-4-Quinazolinamine]
- remaining activity at 10 µM [1, 10]: 116%
- remaining activity at 10 µM [2, 10]: 60%
- remaining activity at 10 µM [3, 10]: 65%
- remaining activity at 10 µM [4, 10]: 108%
- remaining activity at 10 µM [5, 10]: 80%
- remaining activity at 10 µM [6, 10]: 114%
- remaining activity at 10 µM [7, 10]: 86%

SMILES: Fc1ccc(CNc2ncnc3ccc(F)cc23)cc1 [5aa, 6-Fluoro-N-(4-fluorobenzyl)-4-Quinazolinamine]
- remaining activity at 10 µM [1, 11]: 121%
- remaining activity at 10 µM [2, 11]: 109%
- remaining activity at 10 µM [3, 11]: 90%
- remaining activity at 10 µM [4, 11]: 105%
- remaining activity at 10 µM [5, 11]: 98%
- remaining activity at 10 µM [6, 11]: 114%
- remaining activity at 10 µM [7, 11]: 109%
